Test results reported in BigSolDB 2.1.

NC(=O)Cc1ccc(O)cc1
solubility (mole fraction)
Conditions	278.15 K	283.15 K	288.15 K	293.15 K	298.15 K	303.15 K	308.15 K	313.15 K	318.15 K	323.15 K
in acetonitrile	0.00096	0.00141	0.00188	0.00249	0.00305	0.00376	0.00463	0.00573	0.00705	0.00869
in ethanol	0.00381	0.00459	0.00534	0.00638	0.00752	0.00902	0.0107	0.0126	0.015	0.0179
in ethyl acetate	0.0017	0.00196	0.00238	0.00297	0.00363	0.00455	0.00557	0.00663	0.0078	0.00932
in isopropanol	0.00319	0.00379	0.0046	0.00552	0.00684	0.00852	0.0102	0.0122	0.0142	0.0164
in methanol	0.0075	0.00824	0.00951	0.0111	0.0128	0.0148	0.0169	0.0192	0.0218	0.0246
in methyl acetate	0.0032	0.00359	0.00415	0.00486	0.00577	0.0068	0.00779	0.00908	0.0103	0.0118
in n-butanol	0.00284	0.00346	0.00428	0.00508	0.00642	0.00754	0.00899	0.0106	0.0125	0.0144
in n-butyl acetate	0.00269	0.003	0.00345	0.0041	0.00491	0.00587	0.00694	0.00812	0.00935	0.0105
in n-heptane	0.00061	0.00087	0.00111	0.00145	0.00194	0.00253	0.00329	0.00418	0.00509	0.00627
in n-hexane	0.00032	0.00053	0.00082	0.00116	0.00151	0.00205	0.00263	0.00343	0.00438	0.0056
in n-propanol	0.00215	0.00245	0.00292	0.0035	0.00424	0.0052	0.00629	0.00734	0.00868	0.01
in water	0.00096	0.00141	0.00188	0.00249	0.00305	0.00376	0.00463	0.00573	0.00705	0.00869
